{"source": "patent US20070161566A1", "about": "“Method of treating multiple sclerosis” (Teva Pharmaceutical Industries, Ltd., priority 2006, published 2007)", "origin": "cited, not measured here", "key": {"MS patients": {"tested_on": "MS patients", "settings": "20 mg/day subcutaneous dose"}, "[1]": {"tested_on": "chronic progressive MS patients", "settings": "15 mg twice per day (30 mg per day); up to 24 months"}}}
{"substance": "L-glutamic acid polymer with L-alanine, L-lysine, L-tyrosine, acetate (salt) [GA]", "values": [{"measurement": "total number of enhancing lesions as measured by MRI", "setting": "MS patients", "value": "reduce the total number of enhancing lesions"}, {"measurement": "arrest or reversal of disease progress vs placebo", "setting": "[1]", "value": "did not produce statistically significant difference"}]}
